# From patent US20250332249A1, “CYTOM[…] CELL EPITOPES AND USES THEREOF” (LA JOLLA INSTITUTE FOR IMMUNOLOGY, priority 2021, published 2025)
# System: PBMCs from HCMV seropositive subjects
# Test: ex vivo IFN-γ Fluorospot assay
# Type: cell-based, human
# Conditions: 19 HCMV seropositive subjects, individual peptide 10 ug/ml, 20 hr; for No. of subjects responding: IFN-γ; for Magnitude of response: IFN-γ spots (FIG. 1: SFC/10^6 PBMC; no unit in table)
# Outline: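 PBMC (200,000/well, triplicate) from HCMV-seropositive donors were stimulated for 20 h at 37 °C with 15-mer peptide pools (2 ug/ml) or single peptides (10 ug/ml). IFN-γ spots were counted by Fluorospot. Positivity required ≥20 SFC/10^6 PBMC over DMSO background, stimulation index >2 and p<0.05.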
Substance,No. of subjects responding,Magnitude of response
163 (MFFLAIRDHDTAGGI) [compound 163],1,1637
194 (TRGYVRYTLSPKARL) [compound 194],7,9337
179 (VMVRIFSTNQGGFML) [compound 179],2,3560
21 (ALALHFLTSRKGVTD) [compound 21],1,40
227 (PRLHCLVTTRSSTRE) [compound 227],1,1277
148 (AGLMMMRRMRRAPAE) [compound 148],1,490
189 (HVRLLSYRGDPLVFK) [compound 189],3,333
137 (LEERDEWVRSLAVDA) [compound 137],1,47
201 (TAYKAFLWKYAKKLN) [compound 201],1,503
19 (KFVLQDFDVQHLRRL) [compound 19],1,40
226 (EKYMVLVSHNLDELA) [compound 226],1,20
